Activity calls are given as the source filed them. No cut-off for these calls is given here.
Legend:
[1] = (§1) Antiproliferative against human TG1 cells at 30 to 300 uM after 24 hrs by WST-1 assay; assay type: functional
[2] = (§2) Antiproliferative against human TG10 cells at 300 uM after 24 hrs by WST-1 assay; assay type: functional
[3] = (§3) Antiproliferative against human TG1 cells at 300 uM after 24 hrs by WST-1 assay; assay type: functional
[4] = Antiproliferative against human NSC-24 cells at 300 uM after 24 hrs by WST-1 assay; assay type: cell-based; conditions: nsc-24, 24 h
[5] = target: RAC-alpha serine/threonine-protein kinase (Homo sapiens) (UniProt P31749); assay: Inhibition of AKT phosphorylation in human TG10 cells at 300 uM after 30 mins by Western blot analysis; assay type: cell-based
Sequence of RAC-alpha serine/threonine-protein kinase (Homo sapiens) (P31749 whole entry): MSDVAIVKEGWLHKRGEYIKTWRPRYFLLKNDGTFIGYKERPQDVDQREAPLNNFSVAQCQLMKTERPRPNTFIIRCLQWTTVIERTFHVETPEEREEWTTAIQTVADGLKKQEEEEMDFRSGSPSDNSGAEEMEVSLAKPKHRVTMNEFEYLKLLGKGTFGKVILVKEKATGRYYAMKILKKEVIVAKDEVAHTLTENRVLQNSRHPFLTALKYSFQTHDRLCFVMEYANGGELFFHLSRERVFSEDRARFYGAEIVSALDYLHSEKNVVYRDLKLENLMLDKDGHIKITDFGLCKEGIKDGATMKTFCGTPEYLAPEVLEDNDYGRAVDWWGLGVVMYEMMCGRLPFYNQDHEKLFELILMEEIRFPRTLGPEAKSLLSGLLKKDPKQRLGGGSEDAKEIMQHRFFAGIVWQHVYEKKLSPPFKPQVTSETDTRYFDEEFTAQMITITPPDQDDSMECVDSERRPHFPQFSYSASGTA

[6] = target: RAC-alpha serine/threonine-protein kinase (Homo sapiens) (UniProt P31749); assay: Inhibition of AKT phosphorylation in human TG1 cells at 300 uM after 30 mins by Western blot analysis; assay type: cell-based
[7] = target: RAC-alpha serine/threonine-protein kinase (Homo sapiens) (UniProt P31749); assay: Inhibition of AKT phosphorylation in human NSC-24 cells at 300 uM after 30 mins by Western blot analysis; assay type: cell-based
TG1 [8] = assay: as §1; assay type: functional
[9] = Antiproliferative against human TG10 cells at 30 to 300 uM after 24 hrs by WST-1 assay; assay type: functional
[10] = Antiproliferative against human NSC-24 cells at 30 to 300 uM after 24 hrs by WST-1 assay; assay type: cell-based; conditions: nsc-24, 24 h
TG10 = assay: as §2; assay type: functional
TG1 [11] = assay: as §3; assay type: functional
[12] = Antiproliferative against human TG1 cells after 24 hrs by WST-1 assay; assay type: functional
[13] = Antiproliferative against human TG10 cells after 24 hrs by WST-1 assay; assay type: functional

| inhibition [5] | inhibition [6] | Structure (SMILES) | Activity [1] | Activity (TG1 [8]) | also measured |
| --- | --- | --- | --- | --- | --- |
| Active | Active | O=c1ccc2nccc3c4cc(OCc5ccccc5)ccc4n1c23 | 40% | – | Activity [2]: 85%; Activity [3]: 40%; Activity [4]: Non-toxic; inhibition [7]: inactive |
| – | – | COc1ccc2c(c1)c1ccnc3ccc(=O)n2c31 | – | inactive | – |
| – | – | Nc1cc(=O)n2c3ccccc3c3ccnc1c32 | – | inactive | – |
| – | – | O=C1CCc2nccc3c4ccccc4n1c23 | – | inactive | – |
| – | – | O=c1c2ccccc2c2nccc3c4ccccc4n1c32 | – | inactive | – |
| – | – | O=c1ccc2c3c(cc[n+]2[O-])c2ccccc2n13 | – | inactive | – |
| Active | Active | COc1cc2nccc3c4ccccc4n(c1=O)c23 [5-METHOXYCANTHINONE] | 40% | – | Activity [9]: 35%; Activity [10]: 60%; inhibition [7]: Active |
| Active | Active | O=c1ccc2nccc3c4ccccc4n1c23 [CANTHIN-6-ONE] | 40% | – | Activity [9]: 35%; Activity [10]: 60%; Activity (TG10): Active; Activity (TG1 [11]): Active |
| – | – | Cn1nnc2c(C(N)=O)ncn2c1=O [TEMOZOLOMIDE] | – | – | Activity [12]: >80%; Activity [13]: >80% |

Reference: ChEMBL document CHEMBL3217608, “Alkaloids from Rutaceae: activities of canthin-6-one alkaloids and synthetic analogues on glioblastoma stems cells” (Medchemcomm, 2012)
